# Assay results reported in ChEMBL document CHEMBL1681678, “Discovery of β-aminoacyl containing thiazolidine derivatives as potent and selective dipeptidyl peptidase IV inhibitors” (Bioorg Med Chem Lett, 2011).
# Experiments:
# [1] = Inhibition of trypsin
# [2] = Metabolic stability in human liver microsomes assessed as compound remaining after 1 hr; assay type: ADME, Microsome; details: read-out: Stability
# CYP1A2 = target: T1, CYP1A2 (Homo sapiens, UniProt P05177); assay: Inhibition of CYP1A2 at 10 uM; assay type: ADME
# T1 sequence (P05177 whole entry): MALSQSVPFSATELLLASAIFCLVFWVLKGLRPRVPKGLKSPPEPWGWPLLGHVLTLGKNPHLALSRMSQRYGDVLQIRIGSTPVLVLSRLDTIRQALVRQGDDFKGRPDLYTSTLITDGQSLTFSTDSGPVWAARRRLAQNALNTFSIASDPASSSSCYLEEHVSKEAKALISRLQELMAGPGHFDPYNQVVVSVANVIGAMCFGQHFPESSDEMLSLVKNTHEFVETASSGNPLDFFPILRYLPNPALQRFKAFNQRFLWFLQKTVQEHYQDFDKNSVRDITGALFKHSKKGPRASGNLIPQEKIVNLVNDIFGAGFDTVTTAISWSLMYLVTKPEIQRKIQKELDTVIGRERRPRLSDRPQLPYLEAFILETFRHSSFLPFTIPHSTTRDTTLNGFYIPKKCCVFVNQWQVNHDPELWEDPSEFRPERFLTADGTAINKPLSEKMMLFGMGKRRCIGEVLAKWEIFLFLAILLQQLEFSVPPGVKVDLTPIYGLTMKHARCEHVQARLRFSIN
# [3] = Inhibition of elastase
# Prolyl endopeptidase = target: T2, Prolyl endopeptidase (Rattus norvegicus, UniProt O70196); assay: Inhibition of POP in rat brain cortex; assay type: tissue-based
# T2 sequence (O70196 whole entry): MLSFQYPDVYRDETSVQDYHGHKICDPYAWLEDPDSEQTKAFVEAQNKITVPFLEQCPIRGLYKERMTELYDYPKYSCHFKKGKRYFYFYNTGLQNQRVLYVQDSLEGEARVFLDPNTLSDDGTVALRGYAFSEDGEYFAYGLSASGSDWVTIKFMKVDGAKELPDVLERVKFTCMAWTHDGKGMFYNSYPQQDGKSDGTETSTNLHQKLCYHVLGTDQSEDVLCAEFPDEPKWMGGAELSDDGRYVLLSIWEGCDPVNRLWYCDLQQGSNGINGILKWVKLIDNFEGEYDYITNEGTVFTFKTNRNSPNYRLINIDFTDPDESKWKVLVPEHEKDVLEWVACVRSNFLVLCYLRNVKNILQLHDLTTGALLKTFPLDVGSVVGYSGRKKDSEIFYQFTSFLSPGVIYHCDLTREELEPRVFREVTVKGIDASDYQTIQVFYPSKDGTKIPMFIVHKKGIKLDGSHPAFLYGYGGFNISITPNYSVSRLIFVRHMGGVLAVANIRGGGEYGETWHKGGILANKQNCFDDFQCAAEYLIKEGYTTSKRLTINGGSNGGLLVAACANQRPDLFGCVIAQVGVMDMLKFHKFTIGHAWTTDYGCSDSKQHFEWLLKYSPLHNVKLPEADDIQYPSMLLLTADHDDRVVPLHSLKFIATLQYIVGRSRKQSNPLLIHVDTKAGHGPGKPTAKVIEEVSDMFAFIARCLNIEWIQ
# [4] = Chemical stability of the compound in buffer solution assessed as compound remaining at pH 1 to 9 after 24 hrs; assay type: physicochemical; details: read-out: Stability
# [5] = target: Voltage-gated inwardly rectifying potassium channel KCNH2 (Homo sapiens, UniProt Q12809); assay: Binding affinity to human ERG
# [6] = Metabolic stability in rat liver microsomes assessed as compound remaining after 1 hr; assay type: ADME, Microsome; details: read-out: Stability
# Dipeptidyl peptidase 2 = Dipeptidyl peptidase 2 (Rattus norvegicus, UniProt Q9EPB1); assay: Inhibition of rat DPP2 expressed in african green monkey COS7 cells after 60 mins by fluorescence plate reader; assay type: cell-based, COS-7
# CYP2C19 = CYP2C19 (Homo sapiens, UniProt P33261); assay: Inhibition of CYP2C19 at 10 uM; assay type: ADME
# CYP3A4 = CYP3A4 (Homo sapiens, UniProt P08684); assay: Inhibition of CYP3A4 at 10 uM; assay type: ADME
# [7] = Cytotoxicity against human WI38 cells at 100 uM; assay type: cell-based; details: wi-38, 100 µM
# CYP2D6 = CYP2D6 (Homo sapiens, UniProt P10635); assay: Inhibition of CYP2D6 at 10 uM; assay type: ADME
# HepG2 = assay: Cytotoxicity against human HepG2 cells at 100 uM; assay type: cell-based; details: hepg2, 100 µM
# CYP2C9 = CYP2C9 (Homo sapiens, UniProt P11712); assay: Inhibition of CYP2C9 at 10 uM; assay type: ADME
# Aminopeptidase N = Aminopeptidase N (Homo sapiens, UniProt P15144); assay: Inhibition of APN
# Rattus norvegicus [8] = assay: Inhibition of DPP4 in CD rat plasma at 10 mg/kg, po after 12 hrs; assay type: functional
# Rattus norvegicus [9] = assay: Inhibition of DPP4 in CD rat plasma at 10 mg/kg, po after 8 hrs; assay type: functional
# Canis familiaris [10] = assay: Inhibition of DPP4 in Beagle dog plasma at 3 mg/kg, po after 12 hrs; assay type: functional; details: Canis lupus familiaris
# Canis familiaris [11] = assay: Inhibition of DPP4 in Beagle dog plasma at 3 mg/kg, po after 1 hr; assay type: functional; details: Canis lupus familiaris
# Canis familiaris [12] = assay: Inhibition of DPP4 in Beagle dog plasma at 3 mg/kg, po after 4 hrs; assay type: functional; details: Canis lupus familiaris
# Canis familiaris [13] = assay: Inhibition of DPP4 in Beagle dog plasma at 3 mg/kg, po after 24 hrs; assay type: functional; details: Canis lupus familiaris
# Rattus norvegicus [14] = assay: Inhibition of DPP4 in CD rat plasma at 10 mg/kg, po after 1 hr; assay type: functional
# Sequence of CYP2C19 (P33261 whole entry): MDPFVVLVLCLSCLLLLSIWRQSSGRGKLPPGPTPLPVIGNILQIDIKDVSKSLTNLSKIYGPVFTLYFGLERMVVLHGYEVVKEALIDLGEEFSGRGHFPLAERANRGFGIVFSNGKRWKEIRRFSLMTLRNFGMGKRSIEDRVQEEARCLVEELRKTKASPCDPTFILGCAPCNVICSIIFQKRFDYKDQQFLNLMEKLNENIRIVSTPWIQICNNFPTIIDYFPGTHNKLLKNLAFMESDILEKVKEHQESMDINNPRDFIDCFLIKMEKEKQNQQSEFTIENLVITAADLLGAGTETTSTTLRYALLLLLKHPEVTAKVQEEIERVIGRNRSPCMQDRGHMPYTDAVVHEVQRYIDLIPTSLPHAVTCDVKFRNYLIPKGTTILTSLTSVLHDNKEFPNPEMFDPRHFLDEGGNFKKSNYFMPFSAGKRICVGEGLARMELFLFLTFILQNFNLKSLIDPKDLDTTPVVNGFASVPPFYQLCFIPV
# Sequence of Voltage-gated inwardly rectifying potassium channel KCNH2 (Q12809 whole entry): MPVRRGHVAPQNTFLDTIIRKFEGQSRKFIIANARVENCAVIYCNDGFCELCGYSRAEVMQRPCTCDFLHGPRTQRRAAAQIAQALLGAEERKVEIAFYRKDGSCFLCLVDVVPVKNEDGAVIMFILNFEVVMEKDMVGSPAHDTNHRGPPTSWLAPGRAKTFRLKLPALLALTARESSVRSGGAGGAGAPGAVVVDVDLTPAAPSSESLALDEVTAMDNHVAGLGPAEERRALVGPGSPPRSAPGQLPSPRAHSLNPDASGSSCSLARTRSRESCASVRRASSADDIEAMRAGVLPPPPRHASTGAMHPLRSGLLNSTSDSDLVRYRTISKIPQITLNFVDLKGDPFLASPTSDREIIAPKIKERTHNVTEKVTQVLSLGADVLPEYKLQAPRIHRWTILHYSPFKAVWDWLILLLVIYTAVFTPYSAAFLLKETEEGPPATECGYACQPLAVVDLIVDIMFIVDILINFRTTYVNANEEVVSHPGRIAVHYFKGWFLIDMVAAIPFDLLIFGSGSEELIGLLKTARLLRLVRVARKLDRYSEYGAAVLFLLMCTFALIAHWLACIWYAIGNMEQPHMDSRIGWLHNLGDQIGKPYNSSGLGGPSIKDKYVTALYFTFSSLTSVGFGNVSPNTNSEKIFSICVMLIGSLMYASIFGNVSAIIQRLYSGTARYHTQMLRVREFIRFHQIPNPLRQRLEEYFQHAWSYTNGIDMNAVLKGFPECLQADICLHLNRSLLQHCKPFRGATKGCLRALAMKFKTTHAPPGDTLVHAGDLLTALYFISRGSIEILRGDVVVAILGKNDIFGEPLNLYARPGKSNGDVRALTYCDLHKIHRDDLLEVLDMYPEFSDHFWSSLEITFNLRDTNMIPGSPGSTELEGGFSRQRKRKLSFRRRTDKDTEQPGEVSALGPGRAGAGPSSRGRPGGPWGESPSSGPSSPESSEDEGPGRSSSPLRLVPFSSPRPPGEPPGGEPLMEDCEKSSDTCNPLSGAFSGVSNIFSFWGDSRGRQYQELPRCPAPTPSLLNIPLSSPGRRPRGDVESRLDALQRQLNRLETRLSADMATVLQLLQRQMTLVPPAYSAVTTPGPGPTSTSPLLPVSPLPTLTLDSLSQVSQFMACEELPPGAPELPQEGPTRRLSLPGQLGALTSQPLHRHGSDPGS
# Sequence of CYP2C9 (P11712 whole entry): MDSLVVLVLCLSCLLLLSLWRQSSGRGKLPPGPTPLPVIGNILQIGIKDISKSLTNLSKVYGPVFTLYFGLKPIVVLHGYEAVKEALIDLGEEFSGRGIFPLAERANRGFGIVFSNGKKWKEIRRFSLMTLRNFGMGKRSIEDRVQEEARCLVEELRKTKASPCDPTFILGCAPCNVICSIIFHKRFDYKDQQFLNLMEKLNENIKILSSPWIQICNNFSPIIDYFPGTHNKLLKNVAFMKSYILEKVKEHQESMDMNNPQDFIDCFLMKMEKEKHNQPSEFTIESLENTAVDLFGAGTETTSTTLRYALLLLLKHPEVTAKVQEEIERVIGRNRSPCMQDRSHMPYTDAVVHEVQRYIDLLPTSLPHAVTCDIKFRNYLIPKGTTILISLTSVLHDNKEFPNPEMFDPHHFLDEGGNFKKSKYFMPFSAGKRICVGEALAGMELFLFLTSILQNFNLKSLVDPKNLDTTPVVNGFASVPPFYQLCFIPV
# Sequence of CYP3A4 (P08684 whole entry): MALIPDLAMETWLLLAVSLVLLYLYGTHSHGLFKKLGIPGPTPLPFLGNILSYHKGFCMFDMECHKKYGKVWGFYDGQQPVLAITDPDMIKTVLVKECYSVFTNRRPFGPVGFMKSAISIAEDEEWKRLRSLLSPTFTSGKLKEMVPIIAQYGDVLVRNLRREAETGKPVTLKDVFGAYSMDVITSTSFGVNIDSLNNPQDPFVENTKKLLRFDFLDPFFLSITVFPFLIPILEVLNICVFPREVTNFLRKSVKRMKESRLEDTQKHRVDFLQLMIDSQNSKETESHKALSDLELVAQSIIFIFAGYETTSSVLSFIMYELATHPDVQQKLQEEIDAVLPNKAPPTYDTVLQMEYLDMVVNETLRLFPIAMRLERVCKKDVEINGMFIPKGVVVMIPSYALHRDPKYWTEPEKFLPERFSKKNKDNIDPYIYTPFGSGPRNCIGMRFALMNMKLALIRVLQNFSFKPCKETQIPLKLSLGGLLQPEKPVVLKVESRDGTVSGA
# Sequence of Dipeptidyl peptidase 2 (Q9EPB1 whole entry): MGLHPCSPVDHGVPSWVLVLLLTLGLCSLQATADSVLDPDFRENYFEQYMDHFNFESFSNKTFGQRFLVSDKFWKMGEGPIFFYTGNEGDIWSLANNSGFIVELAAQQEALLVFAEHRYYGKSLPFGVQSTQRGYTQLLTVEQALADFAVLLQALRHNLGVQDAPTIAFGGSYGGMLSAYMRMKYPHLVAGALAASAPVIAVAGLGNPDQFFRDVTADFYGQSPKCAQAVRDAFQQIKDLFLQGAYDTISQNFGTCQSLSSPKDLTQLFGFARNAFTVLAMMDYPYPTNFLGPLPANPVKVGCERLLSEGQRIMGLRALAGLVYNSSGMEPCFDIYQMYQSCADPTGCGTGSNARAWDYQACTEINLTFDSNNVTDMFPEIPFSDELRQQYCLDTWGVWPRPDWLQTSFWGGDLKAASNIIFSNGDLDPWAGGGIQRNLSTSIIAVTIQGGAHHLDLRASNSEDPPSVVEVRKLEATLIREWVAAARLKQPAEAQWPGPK
# Sequence of Aminopeptidase N (P15144 whole entry): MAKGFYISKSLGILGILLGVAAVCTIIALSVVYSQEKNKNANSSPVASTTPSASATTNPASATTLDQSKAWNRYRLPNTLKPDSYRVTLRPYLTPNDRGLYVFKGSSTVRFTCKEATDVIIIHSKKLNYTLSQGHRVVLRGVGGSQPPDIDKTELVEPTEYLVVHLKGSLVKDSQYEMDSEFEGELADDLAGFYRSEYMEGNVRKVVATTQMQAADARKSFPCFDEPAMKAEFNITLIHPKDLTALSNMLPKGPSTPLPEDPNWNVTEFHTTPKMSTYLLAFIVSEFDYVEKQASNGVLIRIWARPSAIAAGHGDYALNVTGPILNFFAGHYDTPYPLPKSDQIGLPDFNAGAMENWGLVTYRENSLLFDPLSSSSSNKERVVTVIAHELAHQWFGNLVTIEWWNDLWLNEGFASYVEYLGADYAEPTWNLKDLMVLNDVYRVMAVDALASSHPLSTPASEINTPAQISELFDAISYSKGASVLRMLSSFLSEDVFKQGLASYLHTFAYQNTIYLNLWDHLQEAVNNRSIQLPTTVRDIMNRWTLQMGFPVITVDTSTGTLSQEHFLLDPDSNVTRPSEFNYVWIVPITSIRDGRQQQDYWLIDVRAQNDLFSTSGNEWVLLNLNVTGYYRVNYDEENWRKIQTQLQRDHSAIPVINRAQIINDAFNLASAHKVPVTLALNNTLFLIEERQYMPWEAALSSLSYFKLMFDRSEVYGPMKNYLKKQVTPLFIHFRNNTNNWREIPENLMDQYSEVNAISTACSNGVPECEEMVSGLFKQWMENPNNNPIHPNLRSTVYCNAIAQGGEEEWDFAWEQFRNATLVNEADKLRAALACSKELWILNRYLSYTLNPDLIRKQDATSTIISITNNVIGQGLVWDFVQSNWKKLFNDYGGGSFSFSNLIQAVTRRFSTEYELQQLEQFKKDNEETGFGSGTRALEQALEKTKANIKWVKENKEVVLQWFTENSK
# Sequence of CYP2D6 (P10635 whole entry): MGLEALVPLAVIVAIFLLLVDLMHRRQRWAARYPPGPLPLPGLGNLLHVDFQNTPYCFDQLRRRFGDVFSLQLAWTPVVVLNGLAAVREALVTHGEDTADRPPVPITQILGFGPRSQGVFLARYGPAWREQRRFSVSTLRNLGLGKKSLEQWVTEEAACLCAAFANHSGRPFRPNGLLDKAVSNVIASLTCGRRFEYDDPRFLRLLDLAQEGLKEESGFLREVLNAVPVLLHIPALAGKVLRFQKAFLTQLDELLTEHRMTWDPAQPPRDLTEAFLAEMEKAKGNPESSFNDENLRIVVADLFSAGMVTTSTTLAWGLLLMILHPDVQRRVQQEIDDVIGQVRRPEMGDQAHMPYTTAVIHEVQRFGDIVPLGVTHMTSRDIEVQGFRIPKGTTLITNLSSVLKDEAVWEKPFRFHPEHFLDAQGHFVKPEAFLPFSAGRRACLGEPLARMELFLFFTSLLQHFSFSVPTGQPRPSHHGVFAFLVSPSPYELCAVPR
smiles,measurement,setting,value
CC(C)[C@@H](Nc1ccc(CNC(=O)[C@@H]2SCCN2C(=O)C[C@H](N)Cc2cc(F)c(F)cc2F)cc1)C(=O)O.Cl,IC50,[1],> 100 µM
same,remaining at 1 h,[2],> 90%
same,inhibition at 10 µM,CYP1A2,2.9%
same,IC50,[3],> 100 µM
same,IC50,Prolyl endopeptidase,> 100 µM
same,remaining at 24 h,[4],> 90%
same,EC50,[5],408 µM
same,remaining at 1 h,[6],> 90%
same,IC50,Dipeptidyl peptidase 2,> 100 µM
same,inhibition at 10 µM,CYP2C19,46.9%
same,inhibition at 10 µM,CYP3A4,3.5%
same,Activity,[7],Non-toxic
same,inhibition at 10 µM,CYP2D6,12.2%
same,Activity,HepG2,Non-toxic
same,inhibition at 10 µM,CYP2C9,26.8%
same,IC50,Aminopeptidase N,> 100 µM
CCOC(=O)[C@H](Nc1ccc(CNC(=O)[C@@H]2SCCN2C(=O)C[C@H](N)Cc2cc(F)c(F)cc2F)cc1)C(C)C,inhibition in vivo at 10 mg/kg,Rattus norvegicus [8],87%
same,inhibition in vivo at 10 mg/kg,Rattus norvegicus [9],92%
same,inhibition in vivo at 3 mg/kg,Canis familiaris [10],77%
same,inhibition in vivo at 3 mg/kg,Canis familiaris [11],94%
same,inhibition in vivo at 3 mg/kg,Canis familiaris [12],93%
same,inhibition in vivo at 3 mg/kg,Canis familiaris [13],44%
same,inhibition in vivo at 10 mg/kg,Rattus norvegicus [14],95%
